In this assay the test system is SKOV3 human ovarian cancer cells. As to the kind of experiment: Effects of ADH358 on confluent cultures of SKOV3 cells (disruption of cell adhesion, microscopic examination). Type of assay: cell-based. Particulars: 1 mg/ml of culture medium, 24 hours of treatment. The method, then:
We investigated the effects of the linear peptide ADH358 (H-RWAPIP-NH2 (SEQ ID NO: 2); Desmocollin derived peptide) on confluent cultures of SKOV3 cells. SKOV3 human ovarian cancer cells express desmosomes (which are composed of desmocollins and desmogleins). SKOV3 human ovarian cancer cells were obtained from Dr. Riaz Farookhi, McGill University, Montreal, Canada. The cells were cultured in minimum essential medium (MEM) supplemented with 10% fetal calf serum, non-essential amino acids, fungizone, penicillin-streptomycin, and gentamicin in a humidified atmosphere (5% CO2) at 37° C. All culture reagents were purchased from GIBCO (Burlington, ON). ADH358 (1 mg/ml of culture medium) was added to confluent cultures of SKOV3 cells. After 24 hours of treatment, the cells were fixed with 4% paraformaldehyde, followed by 3 washes with phosphate buffered saline, and then stained with hematoxylin. Control cultures were grown in the absence of peptide.

Regarding H-RWAPIP-NH2 [ADH358], the “cell morphology / cell-cell attachment of SKOV3 cells” value is “detach from one another and adopt an elongated, fibroblast-like morphology”. Also, the “effect on confluent SKOV3 monolayers (cell adhesion)” value (hematoxylin stain, vs control cultures without peptide) is given as “disruption of the confluent SKOV3 monolayers”.

(Values after US7476509B2, “Compounds and methods for modulating functions of nonclassical cadherins” (Adherex Technologies Inc., priority 2002, dated 2009).)
